Reference: patent US11633370B2, “Use of scavengers of reactive gamma-ketoaldehydes to extend cell lifespan and healthspan” (Vanderbilt University, priority 2016, dated 2023)

Assays:
N2 WT C. elegans [1] = assay: Lipofuscin autofluorescence measurement, N2; assay type: in vivo; conditions: 100 μM or 500 μM SA versus vehicle control; p<0.01
From the text: To quantify this, the present inventors chose both a biochemical endpoint (lipofuscin autofluorescence) and a behavioral measure (pharyngeal pumping) that change predictably with aging and are associated with healthspan. The accumulation in the nematode intestinal epithelium of autofluorescent lipofuscin granules, a heterogeneous mixture of oxidized and crosslinked lipids and proteins and advanced glycation end products, is a known conserved phenomenon observed to increase with age. Visualization of lipofuscin granules is often used as an age-related assessment of healthspan. Lipofuscin autofluorescence were quantified over time (every 5 days) in N2 adult nematodes (10-20 per colony) in the presence of increasing doses of SA. SA response profiles were generated from integrating the area-under-the-curve (AUC) of fluorescent intensity as a function of time (FIG. 1C). […] For a behavioral/functional measurement of health, pharyngeal pumping rates were quantified. […] Pharyngeal pumping rates quantified in WT N2 worms established on OP50-seeded NGM agar plates with increasing concentrations of SA. The frequency of pharyngeal pumping was measured and recorded every fifth day as the animals aged.
Synchronized late L4/early young adult worms were plated on FUDR containing SA-OP50-seeded NGM plates and worms were maintained at 20° C. […] The fluorescence was calculated using ImageJ software.

VC199 [sir-2.1(ok434)] = assay: Pharyngeal pumping rate, VC199; assay type: in vivo, C. elegans; conditions: increasing concentrations of SA, day 15; P=0.5
Description: As with the N2 strain, the present inventors treated VC199 nematodes with increasing concentrations of SA and assessed the age-dependent accumulation of autofluorescent lipofuscin granules and decrease in pharyngeal pumping rate.
C. elegans pharyngeal pumping rate assays were performed on 60-mm agar plates with bacterial lawns at room temperature. Every fifth day, worms were transferred to fresh bacteria-seeded NGM plates, and incubated at 25° C. for 10 min in order to equilibrate feeding rates before measurement. After 10 min incubation, worms were observed under the Zeiss TLB 3.1 microscope with focus on the pharynx. The number of contractions in the terminal bulb of the pharynx was counted for 20 s and then plotted.

N2 WT C. elegans [2] = assay: Oxygen consumption rate of whole worms, N2; assay type: in vivo; conditions: whole worms over several days; p>0.05
From the text: (§1) Mitochondria lie at the center of aging biology, playing crucial roles in energy production, carbon substrate metabolism, apoptosis regulation, and redox balance and signaling. Since sirtuins play a major role in regulating mitochondrial function, the present inventors next wanted to investigate whether SA was exerting any of its effects via protection of mitochondrial processes. To investigate SA's effects on mitochondrial respiration, the present inventors administered SA to WT N2 (FIG. 5A) and non-functional SIR-2.1 mutant worms (FIG. 5B) and measured oxygen consumption rate (OCR) in whole worms over several days. […] The present inventors also examined the effect of SA treatment on mitochondrial DNA (mtDNA) integrity.
Oxygen consumption rate for whole C. elegans was measured using a Seahorse Bioscience XF^e96 Analyzer. Worms were harvested from Day 0, 2, and 15 colonies maintained on FUDR containing SA-OP50-seeded NGM plates by washing in M9 medium, followed by floatation on an ice-cold 60% w/v sucrose gradient to segregate clean bacteria-free adult worms from bacterial debris. Worms were seeded at 1,000 worms/well in M9. After 20 min equilibration, a 2-min measurement was performed to obtain basal OCR for all experimental conditions and strains.

N2 WT C. elegans [3] = assay: mtDNA copy number by qPCR, N2; assay type: in vivo; conditions: with age or with SA treatment
From the text: as §1
Relative mitochondrial and nuclear copy number were measured by quantitative, real-time PCR [90]. Primers for NADH dehydrogenase unit 1 (nd1) and a 164 bp region of the cox-4 gene were used in determination of mtDNA copy number. The nd1 forward primer 5′-[…]-3′ and reverse primer 5′-[…]-3′. Cox-4 forward primer 5′-GCCGACTGGAAGAACTTGTC-3′ and reverse primer 5′-[…]-3′. […] Amplified products were detected with SYBR Green (iQ™ SYBR® Green Supermix, Bio-Rad) and fluorescent signal intensities were determined by CFX96 Touch™ Real-Time PCR Detection System (Bio-Rad) by software CFX Manager™ (version 3.1). […]

[4] = compared with pyridoxamine (PM); cited from earlier work

SMILES: NCc1ccccc1O [SA, salicylamine]
- age-associated lipofuscin accumulation (AUC of autofluorescence over time) (N2 WT C. elegans [1]): significant reduction
- pharyngeal pumping rate (VC199 [sir-2.1(ok434)]): failed to preserve pharyngeal pumping rate
- mitochondrial oxygen consumption rate (OCR) (N2 WT C. elegans [2]): no effect
- mtDNA copy number relative to nuclear DNA (N2 WT C. elegans [3]): no significant difference
- lipophilicity [4]: more lipophilic
